In patent US20020137891A1, “Protein scaffold and its use to multimerise monomeric polypeptides” (priority 1999, published 2002):

Legend:
anti-GroEL antibodies = assay: Anti-GroEL antibodies binding by ELISA; set-up: species or system rabbit; details: direct and indirect ELISA, different concentrations of antibodies, FIG. 6
Protocol: Anti-GroEL antibodies binding by ELISA. The same amount of proteins (1 μg) were coated as described above. […] ELISAs were developed as described above.

[1] = target: T1, pig heart mitochondrial malate dehydrogenase (mtMDH) (Sus scrofa, UniProt P00346); assay: In vitro refolding and aggregation protection of heat- and dithiothreitol-denatured mtMDH; format: biochemical
T1 construct: pig heart mitochondrial malate dehydrogenase (mtMDH; Boehringer-Mannheim); purchased Boehringer-Mannheim; host or cells: pig heart
T1 sequence (P00346 25-338): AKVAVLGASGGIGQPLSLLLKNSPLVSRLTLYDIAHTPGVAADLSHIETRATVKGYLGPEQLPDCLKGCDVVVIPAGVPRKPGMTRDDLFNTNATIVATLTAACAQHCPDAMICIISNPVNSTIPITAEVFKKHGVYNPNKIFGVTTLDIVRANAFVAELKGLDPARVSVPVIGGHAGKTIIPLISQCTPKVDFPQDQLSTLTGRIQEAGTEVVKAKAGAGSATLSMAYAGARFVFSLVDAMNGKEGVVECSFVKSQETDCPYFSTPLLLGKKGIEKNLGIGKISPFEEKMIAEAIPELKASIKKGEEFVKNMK
Protocol: In vitro refolding experiments. Refolding assays of pig heart mitochondrial malate dehydrogenase (mtMDH; Boehringer-Mannheim) and aggregation protection were carried out essentially as described (Peres Ben-Zvi, A. P., Chatellier, J., Fersht, A. R. & Goloubinoff, P. (1998) Proc. Natl. Acad. Sci. U.S.A. 95, 15275-15280). The concentrations of MC7 used were between 8-16 μM (reporter to protomer).

bacteriophage λ (b2cI) = assay: Growth (plaque formation) of bacteriophage λ at 30° C. in transformed wild-type and groEL mutant strains; format: cell-based, E. coli
Source text: (§1) Bacterial and bacteriophage strains. The E. coli strains used in this study were: C41(DE3), a mutant of BL21(DE3) capable of expressing toxic genes (Miroux, B. & Walker, J. E. (1996) J. Mol. Biol. 260, 289-298); SV2 (B178groEL44), SV3 (B178groEL59) and SV6 (B178groEL673): isogenic strains carrying temperature-sensitive alleles of groEL; SV1(=B178) (Georgopoulos, C., Hendrix, R. W., Casjens, S. R. & Kaiser, A. D. (1973) J. Mol. Biol. 76, 45-60), AI90 (ΔgroEL::kan^R) [pBAD-EL] (Ivic, A., Olden, D., Wallington, E. J. & Lund, P. A. (1997) Gene 194, 1-8), and TG1 (Gibson, T. J. (1984) Ph.D. thesis, University of Cambridge, U.K). Bacteriophage λb2cI (Zeilstra-Ryalls, J., Fayet, O., Baird, L. & Georgopoulos, C. (1993) J. Bacteriol. 175, 1134-1143) was used according to standard methods (Arber, W., Enquist, L., Hohn, B., Murray, N. E. & Murray, K. (1983) in Lambda II., ed. R. W. Hendrix, J. W. r., F. W. Stahl and R. A. Weisberg (Cold Spring Harbor Laboratory, Cold Spring Harbor, N.Y.), pp. 433-466); plaque formation was assayed at 30° C. T4D0, a derivative of bacteriophage T4 (Zeilstra-Ryalls, J., Fayet, O., Baird, L. & Georgopoulos, C. (1993) J. Bacteriol. 175, 1134-1143), was used according to standard methods (Karam, J. D. (1994) Molecular biology of bacteriophage T4. (American Society for Microbiology, Washington, D.C.)); plaque formation was assayed at 37° C.
(§2) Bacteriophage λ requires the chaperonins GroES and GroEL for protein folding during morphogenesis; bacteriophage T4 requires GroEL and Gp31, the latter being encoded by the bacteriophage genome (Zeilstra-Ryalls, J., Fayet, O. & Georgopoulos, C. (1991) Annu. Rev. Microbiol. 45, 301-325). Nine groE alleles which fail to support λ growth have been sequenced (Zeilstra-Ryalls, J., Fayet, O., Baird, L. & Georgopoulos, C. (1993) J. Bacteriol. 175, 1134-1143). We examined the ability of MC7, over-expressed from the constitutive tet promoter on a high-copy number vector (see FIG. 2), to complement three mutant groEL alleles for plaque formation by λ (b2cI) at 30° C. (Table 3) and T4 at 37° C. (Table 4).

bacteriophage T4 (T4D0) = assay: Growth (plaque formation) of bacteriophage T4 at 37° C. in transformed wild-type and groEL mutant strains; format: cell-based, E. coli; set-up: key: +++: normal plaque-forming ability relative to wild-type groEL^+ strain, in terms of both number and size; ++: 5-fold fewer plaques relative to wild-type groEL^+ strain, or both; 10-fold fewer plaques, or plaque size reduced relative to wild-type groEL^+ strain, or both; +/−: 10^2-fold fewer plaques and plaque size reduced relative to wild-type groEL^+ strain; no visible plaques (<10^−4); details: pJC plasmid
Source text: as §1, §2

[2] = test system: mutant Huntingdon exon 1-expressing PC12 and SH-SY5Y cells; assay: Inclusion formation and cell death in mutant Huntingdon exon 1-expressing cells on overexpression of chaperones; format: cell-based
Source text: These phenomena have been studied by transiently transfecting part of Huntingdon exon 1 in COS-7, PC12, and SH-SY5Y cells. Inclusion formation was not seen with constructs expressing 23 glutamines but was repeat length and time dependent for mutant constructs with 43-74 repeats. HSP70, HSP40, the 20S proteasome and ubiquitin colocalized with inclusions. […] Thus, inclusion formation may be enhanced in polyglutamine diseases, if the pathological process results in proteasome inhibition or a heat-shock response. […] To our knowledge, this is the first report of an HSP increasing aggregation of an abnormally folded protein in mammalian cells and expands the current understanding of the roles of HDJ-2yHSDJ in protein folding (See Wyttenbach, A. et al. (2000) Proc. Natl. Acad. Sci. USA 97, 2899-2903).
We have tested MC72 in the same system.

Substance: GroEL (1-548): E. coli molecular chaperone, 14 subunits of 57.5 kD in two seven membered rings [reference compound]
- Detection by antibodies specific to GroEL (anti-GroEL antibodies): comparable detection levels
- yield of refolded mtMDH ([1]; after 120 min, FIG. 7c): 6 nM
- rate of refolding of denatured mtMDH ([1]; reactivation at 25° C., chaperone alone, FIG. 7b): 0.04 nM/min
- Complementation of groEL mutant strains for bacteriophage λ growth (in words) (bacteriophage λ (b2cI)): weak complementation of λ growth in SV2 (groEL44) and SV3 (groEL59; Ser201→Phe)
- Effect of over-expression on plaque formation by bacteriophage λ in SV1 (groE^+) (in words) (bacteriophage λ (b2cI)): suffices to inhibit λ growth
- Growth of bacteriophage λ, SV1 (groEL^+) (bacteriophage λ (b2cI); pJC plasmid): − (no visible plaques (<10^−4))
- Growth of bacteriophage λ, SV2 groEL44 (bacteriophage λ (b2cI); pJC plasmid): + (10-fold fewer plaques, or plaque size reduced relative to wild-type groEL^+ strain, or both)
- Growth of bacteriophage λ, SV3 GroEL59 (bacteriophage λ (b2cI); pJC plasmid): ++ (5-fold fewer plaques relative to wild-type groEL^+ strain, or both)
- Growth of bacteriophage λ, SV6 groEL673 (bacteriophage λ (b2cI); pJC plasmid): +/− (10^2-fold fewer plaques and plaque size reduced relative to wild-type groEL^+ strain)
- Growth of bacteriophage T4, SV1 (groEL^+) (bacteriophage T4 (T4D0)): +++
- Growth of bacteriophage T4, SV2 groEL44 (bacteriophage T4 (T4D0)): +++
- Growth of bacteriophage T4, SV3 groEL59 (bacteriophage T4 (T4D0)): +++
- Growth of bacteriophage T4, SV6 groEL673 (bacteriophage T4 (T4D0)): +++
- cell death [2]: had no effect
- inclusion formation [2]: had no effect
